Measured values published in the supplement of paper PMC11061612.

Columns and labels:
[1] = tested on: OSC-20 (Oral Cavity Carcinoma); assay: Bliss excess, mean over the matrix (fraction); higher = more synergy
How it was run: (§1)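 After 24 hours at 37°C and 5% CO2 in 1536-well plates, cells in DMEM/F12 or RPMI plus 10% FBS received two-drug dose matrices for 72 hours. Viability came from CellTiter-Glo 2.0 luminescence and was scaled as inhibition, anchored at 0 by vehicle wells and at 1 by blank wells. Combination Emax is taken as the second-highest inhibition in the matrix, and Bliss excess as the observed combination effect less EA + EB − EA·EB, with EA and EB the single-agent effects.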

[2] = tested on: BT-549 (Breast Carcinoma); assay: combination Emax (second highest fraction inhibited in the dose matrix, 72 h); higher = more inhibition; extreme values may be limits of the assay
How it was run: as §1

[3] = tested on: Ca9-22 (Head and Neck Carcinoma); assay: as above
How it was run: as §1

[4] = tested on: Caov-4 (Ovarian Carcinoma); assay: as above
How it was run: as §1

D-263MG (Glioblastoma) = assay: as above
How it was run: as §1

[5] = tested on: EFM-19 (Breast Carcinoma); assay: as above
How it was run: as §1

[6] = tested on: HGC-27 (Gastric Carcinoma); assay: as above
How it was run: as §1

[7] = tested on: HOP-62 (Lung Adenocarcinoma); assay: as above
How it was run: as §1

[8] = tested on: MIA-PaCa-2 (Pancreatic Carcinoma); assay: as above
How it was run: as §1

[9] = tested on: MLMA (Other Blood Carcinomas); assay: as above
How it was run: as §1

NB69 (Neuroblastoma) = assay: as above
How it was run: as §1

[10] = tested on: NCI-H727 (Other Solid Carcinomas); assay: as above
How it was run: as §1

[11] = tested on: OE19 (Esophageal Adenocarcinoma); assay: as above
How it was run: as §1

[12] = tested on: OSC-20 (Oral Cavity Carcinoma); assay: as above
How it was run: as §1

[13] = tested on: OVCAR-4 (Ovarian Carcinoma); assay: as above
How it was run: as §1

[14] = tested on: PANC-04-03 (Pancreatic Carcinoma); assay: as above
How it was run: as §1

[15] = tested on: SU8686 (Pancreatic Carcinoma); assay: as above
How it was run: as §1

TGW (Neuroblastoma) = assay: as above
How it was run: as §1

TK10 (Kidney Carcinoma) = assay: as above
How it was run: as §1

YH-13 (Glioblastoma) = assay: as above
How it was run: as §1
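For Bliss excess, mean over the matrix in this document: after 72 h of two-drug dosing.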

Row | Structure (SMILES) | Bliss excess [1] | combination Emax [2] | combination Emax [3] | combination Emax [4] | combination Emax (D-263MG (Glioblastoma)) | combination Emax [5] | combination Emax [6] | combination Emax [7] | combination Emax [8] | combination Emax [9] | combination Emax (NB69 (Neuroblastoma)) | combination Emax [10] | combination Emax [11] | combination Emax [12] | combination Emax [13] | combination Emax [14] | combination Emax [15] | combination Emax (TGW (Neuroblastoma)) | combination Emax (TK10 (Kidney Carcinoma)) | combination Emax (YH-13 (Glioblastoma))
1 | CC1(C)CCC(CN2CCN(c3ccc(C(=O)NS(=O)(=O)c4ccc(NCC5CCOCC5)c([N+](=O)[O-])c4)c(Oc4cnc5[nH]ccc5c4)c3)CC2)=C(c2ccc(Cl)cc2)C1 [Venetoclax] + C=CCn1c(=O)c2cnc(Nc3ccc(N4CCN(C)CC4)cc3)nc2n1-c1cccc(C(C)(C)O)n1 [AZD1775] (first compound max 1 µM, partner max 1 µM) | -0.0522 | 0.778 | 0.903 | 0.811 | 0.808 | 0.489 | 0.54 | 0.446 | 0.795 | 0.945 | 0.849 | 0.689 | 0.223 | 0.253 | 0.588 | 0.466 | 0.107 | 0.846 | 0.591 | 0.381
2 | NC1(C(=O)N[C@@H](CCO)c2ccc(Cl)cc2)CCN(c2ncnc3[nH]ccc23)CC1 [Capivasertib] + CCN(CCO)CCCOc1ccc2c(Nc3cc(CC(=O)Nc4cccc(F)c4)[nH]n3)ncnc2c1 [AZD2811] (first compound max 10 µM, 7x7, partner max 1 µM) | 0.0045 | 0.435 | 0.445 | 0.383 | 0.455 | 0.586 | 0.939 | 0.483 | 0.418 | 0.461 | 0.679 | 0.418 | 0.847 | 0.387 | 0.323 | 0.305 | 0.121 | 0.273 | 0.403 | 0.627
3 | CCc1c2c(nc3ccc(O)cc13)-c1cc3c(c(=O)n1C2)COC(=O)[C@]3(O)CC [SN-38] + CN(C)CCCOc1ccc(-c2ccc3ncc4c(c3c2)n(C2CCOCC2)c(=O)n4C)cn1 [AZD0156] (first compound max 0.3 µM, 7x7, partner max 1 µM) | -0.0083 | 0.423 | 0.914 | 0.954 | 0.722 | 0.482 | 0.885 | 0.664 | 0.945 | 0.877 | 0.995 | 0.297 | 0.618 | 0.716 | 0.187 | 0.462 | 0.497 | 0.62 | 0.409 | 0.509
4 | Cc1c2c(nn1C)CSCc1cc(n(C)n1)CSc1cc(c3ccccc3c1)OCCCc1c(C(=O)O)n(C)c3c-2c(Cl)ccc13 [AZD5991] + CCN(CCO)CCCOc1ccc2c(Nc3cc(CC(=O)Nc4cccc(F)c4)[nH]n3)ncnc2c1 [AZD2811] (first compound max 1 µM, 7x7, partner max 1 µM) | 0.0042 | 0.575 | 0.465 | 0.743 | 0.994 | 0.783 | 1 | 0.446 | 0.66 | 0.245 | 0.878 | 0.286 | 0.937 | 0.438 | 0.506 | 0.237 | 0.172 | 0.402 | 0.228 | 0.579
5 | Cc1c2c(nn1C)CSCc1cc(n(C)n1)CSc1cc(c3ccccc3c1)OCCCc1c(C(=O)O)n(C)c3c-2c(Cl)ccc13 [AZD5991] + CC1(C)CCC(CN2CCN(c3ccc(C(=O)NS(=O)(=O)c4ccc(NCC5CCOCC5)c([N+](=O)[O-])c4)c(Oc4cnc5[nH]ccc5c4)c3)CC2)=C(c2ccc(Cl)cc2)C1 [Venetoclax] (first compound max 1 µM, 7x7, partner max 1 µM) | -0.0059 | 0.45 | 0.725 | 0.616 | 0.863 | 0.624 | 0.895 | 0.0765 | 0.451 | 0.248 | 0.877 | 0.258 | 0.457 | 0.145 | 0.188 | 0.175 | 0.0608 | 0.857 | 0.208 | 0.145
6 | NC1(C(=O)N[C@@H](CCO)c2ccc(Cl)cc2)CCN(c2ncnc3[nH]ccc23)CC1 [Capivasertib] + CC(C)n1c(=O)n(C)c2cnc3cc(F)c(-c4ccc(OCCCN5CCCCC5)nc4)cc3c21 [AZD1390] (first compound max 10 µM, 7x7, partner max 0.3 µM) | -0.0528 | 0.353 | 0.286 | 0.245 | 0.249 | 0.469 | 0.852 | 0.374 | 0.188 | 0.452 | 0.341 | 0.35 | 0.346 | 0.256 | 0.162 | 0.318 | 0.113 | 0.172 | 0.411 | 0.541
7 | Cn1cnc2c(F)c(Nc3ccc(Br)cc3Cl)c(C(=O)NOCCO)cc21 [Selumetinib] + CC(C)n1c(=O)n(C)c2cnc3cc(F)c(-c4ccc(OCCCN5CCCCC5)nc4)cc3c21 [AZD1390] (first compound max 10 µM, 7x7, partner max 0.3 µM) | -0.0269 | 0.117 | 0.44 | 0.492 | 0.204 | 0.235 | 0.171 | 0.409 | 0.535 | 0.23 | 0.836 | 0.614 | 0.128 | 0.12 | 0.126 | 0.418 | 0.163 | 0.0418 | 0.325 | 0.131
8 | COc1cccc(OCCCN)c1-c1cc(Nc2cnc(C#N)cn2)n[nH]1 [Prexasertib] + CN(C)CCCOc1ccc(-c2ccc3ncc4c(c3c2)n(C2CCOCC2)c(=O)n4C)cn1 [AZD0156] (first compound max 1 µM, 7x7, partner max 1 µM) | -0.0111 | 0.707 | 1 | 0.964 | 0.915 | 0.28 | 0.858 | 0.632 | 0.754 | 0.957 | 0.915 | 0.717 | 0.889 | 0.584 | 0.771 | 0.564 | 0.525 | 0.964 | 0.727 | 0.777
9 | CCN(CCO)CCCOc1ccc2c(Nc3cc(CC(=O)Nc4cccc(F)c4)[nH]n3)ncnc2c1 [AZD2811] + C[C@@H]1COCCN1C2=NC(=NC(=C2)C3(CC3)[S@](=N)(=O)C)C4=C5C=CNC5=NC=C4 [AZD6738] (first compound max 1 µM, 7x7, partner max 10 µM) | 0.0279 | 0.487 | 0.903 | 0.784 | 0.619 | 0.355 | 0.802 | 0.436 | 0.644 | 0.684 | 0.815 | 0.559 | 0.864 | 0.449 | 0.688 | 0.545 | 0.248 | 0.706 | 0.602 | 0.54
10 | Cc1c2c(nn1C)CSCc1cc(n(C)n1)CSc1cc(c3ccccc3c1)OCCCc1c(C(=O)O)n(C)c3c-2c(Cl)ccc13 [AZD5991] + Cn1cnc2c(F)c(Nc3ccc(Br)cc3Cl)c(C(=O)NOCCO)cc21 [Selumetinib] (first compound max 1 µM, 7x7, partner max 3 µM) | 0.0146 | 0.258 | 0.581 | 0.856 | 0.634 | 0.282 | 0.306 | 0.426 | 0.623 | 0.393 | 0.982 | 0.65 | 0.49 | 0.276 | 0.376 | 0.432 | 0.334 | 0.381 | 0.454 | 0.178
11 | CN(C)CCCOc1ccc(-c2ccc3ncc4c(c3c2)n(C2CCOCC2)c(=O)n4C)cn1 [AZD0156] + CCN(CCO)CCCOc1ccc2c(Nc3cc(CC(=O)Nc4cccc(F)c4)[nH]n3)ncnc2c1 [AZD2811] (first compound max 1 µM, 7x7, partner max 1 µM) | 0.0224 | 0.221 | 0.127 | 0.19 | 0.329 | 0.383 | 0.866 | 0.0853 | 0.376 | 0.239 | 0.588 | 0.155 | 0.722 | 0.353 | 0.148 | 0.0564 | 0.0439 | 0.356 | 0.166 | 0.348
12 | CC(=O)c1c(C)c2cnc(Nc3ccc(N4CCNCC4)cn3)nc2n(C2CCCC2)c1=O [Palbociclib] + Cc1c2c(nn1C)CSCc1cc(n(C)n1)CSc1cc(c3ccccc3c1)OCCCc1c(C(=O)O)n(C)c3c-2c(Cl)ccc13 [AZD5991] (first compound max 10 µM, 7x7, partner max 1 µM) | -0.0337 | 0.455 | 0.267 | 0.602 | 0.612 | 0.255 | 0.715 | 0.424 | 0.447 | 0.784 | 0.91 | 0.311 | 0.664 | 0.168 | 0.191 | 0.196 | 0.0791 | 0.24 | 0.353 | 0.38
13 | Cc1c2c(nn1C)CSCc1cc(n(C)n1)CSc1cc(c3ccccc3c1)OCCCc1c(C(=O)O)n(C)c3c-2c(Cl)ccc13 [AZD5991] + C[C@@H]1COCCN1C2=NC(=NC(=C2)C3(CC3)[S@](=N)(=O)C)C4=C5C=CNC5=NC=C4 [AZD6738] (first compound max 1 µM, 7x7, partner max 10 µM) | 0.0592 | 0.659 | 0.93 | 0.914 | 0.935 | 0.465 | 0.849 | 0.784 | 0.706 | 0.697 | 0.967 | 0.412 | 0.746 | 0.406 | 0.713 | 0.479 | 0.353 | 0.714 | 0.522 | 0.46
